Source: patent US20040063681A1, “Methods for using gold (III) complexes as anti-tumor and anti-HIV agents” (priority 2002, published 2004)
“And” between values parts separate entries of the source, which are not always exact repeats. Equal values may be shown once.

Legend:
[1] = test system: HeLa cells; assay: Flow cytometry annexin V/propidium iodide apoptosis assay; assay type: cell-based, human
Text: Flow cytometry: The gold(III) porphyrin-induced apoptosis of the HeLa cell line has been further examined by flow cytometry. During the early phase of apoptosis, cells lose the asymmetry of their membrane phospholipids, although the integrity of the cell membrane is maintained. A negatively charged phospholipid, named phosphatidylserine (PS), which is located in the inner part of the plasma membrane, becomes exposed to the cell surface. A phospholipid-binding protein, annexin V (green emissive upon binding), with high affinity binds preferentially to PS. Apoptotic cells therefore can be stained by annexin V before the dying cell changes its morphology and hydrolyzes its DNA. On the other hand, both DNA and the PS would be exposed for necrotic cells. In this case, propidium iodide (PI, red emissive upon binding), can be used to stain selectively the naked DNA. Therefore, both apoptotic and necrotic cells can be discriminated after adding these two staining reagents. For apoptotic cells, only annexin V would stain; for necrotic cells, both annexin V and PI would stain.
For comparison, a control cell culture experiment was performed in the absence of Complex 1a and straurosporine. […] Throughout the flow cytometric experiment, <1% of necrotic cells were observed.

[2] = target: T1, HIV-1 reverse transcriptase (Human immunodeficiency virus type 1 group M subtype B, UniProt P04585); assay: HIV-1 reverse transcriptase activity, ELISA method; assay type: biochemical; conditions: ELISA; mean ± SE of at least three determinations; read-out: IC50 HIV-1 RT
T1 construct: treatment of HIV-1 RT in Lysis buffer (2 ng, 128.7 μL) with Complex 1j
Method: HIV-1 reverse transcriptase activities were measured by an ELISA method (see Eberle et al, J. Virol. Methods, 40:347-356 (1992) performed by incubating the enzyme with digoxigenin-labeled deoxyuridin-5′-triphosphate (dUTP) and the biotin-labeled analogue during reverse transcription starting from the template/primer hybrid poly(A)•oligo(dT)15. After reverse transcription, the newly synthesized DNA was immobilized onto streptavidin-coated ELISA wells, and the incorporation of the dioxigenin-labeled dUTP was assayed by chemiluminescence method. For example, treatment of HIV-1 RT in Lysis buffer (2 ng, 128.7 μL) with Complex 1j (1.3 μL of […] stock solution) dissolved in TBS at 37° C. produced significant RT activity inhibition (˜95%) after 30 min incubation.

In the case of C1=Cc2nc1c(-c1ccccc1)c1ccc([n-]1)c(-c1ccccc1)c1nc(c(-c3ccccc3)c3ccc([n-]3)c2-c2ccccc2)C=C1.[Au+3].[Cl-] [Complex 1a], the “cells that underwent apoptosis” value ([1]; 6 h of incubation) is reported as 24%, the “cells died via apoptosis” value ([1]; 15 h of incubation) is reported as 57% and the “annexin V emission” value ([1]; after treatment (Complex 1a 6 and 15 h; straurosporine 15 h)) is reported as “the magnitude of the annexin V emission was enhanced”. The necrotic cells ([1]; throughout the flow cytometric experiment) was under 1% and the IC50 [2] was 28.4 µM and 28 µM.
